System: L. major promastigotes
Test: L. major promastigote viability, propidium iodide flow cytometry
Assay type: cell-based, Leishmania major
Conditions: 50 μM, 48 hours at 24° C.
Procedure: 5×10^5 L. major promastigotes were treated with vehicle control (DMSO), […], 5 μM Compound 5, 50 μM Compound 2, 50 μM Compound 5, or […] for 48 hours at 24° C. Promastigote viability was then assessed via a propidium iodide flow cytometry assay. Propidium iodide is only taken up by dead cells, and the presence of fluorescence in a promastigote sample reflects compound efficacy.

Q: With `O=C(NO)C(c1ccccc1)c1c(-c2ccc3ccccc3c2)[nH]c2ccccc12` (stereo not shown) [Compound 2, N-hydroxy-2-(2-(naphthalen-2-yl)-1H-indol-3-yl)-2-phenylacetamide] as the molecule, how does the “efficacy on L. major promastigote survival” value read?
A: Its value is “higher efficacy than MTF or the vehicle control”.
